The values below are quoted from earlier work in article PMC10046020, “In Silico Screening and Optimization of Cell-Penetrating Peptides Using Deep Learning Methods” (Biomolecules, 2023).

Where two headings read alike, the source gives them in different places.

For this data set the following is noted: cited from earlier work. The text has this:
Supplement biomolecules-13-00522-s001.zip/biomolecules-2162660_Supplementary Spreadsheets S1 Test Set.csv, table | column: class || Supplement biomolecules-13-00522-s001.zip/biomolecules-2162660_Supplementary Spreadsheets S2 Train Set.csv, table | column: class

The mark [1] stands for this setting: Spreadsheet S1: 150 CPP and 150 non-CPP peptides collected from CellPPD, MLCPP, CPPsite 2.0, Lifetein and other publications.

For the substance LAQLLAQLLAQLGGGGRRRRRRRRR, under setting [1], the “class (CPP / Non-CPP), Test Set” value is recorded as “CPP”.

As to RPKRPTTLNLFPQVPRSQDT, the “class (CPP / Non-CPP), Test Set” value under setting [1] is “CPP”.

As to MAPTKRKGSCPGAAPNKKP, the “class (CPP / Non-CPP), Test Set” value under setting [1] is “CPP”.

Turning to AKRGARSTA, the “class (CPP / Non-CPP), Test Set” value under setting [1] is “CPP”.

FQAYPCITAYKVMYID: the “class (CPP / Non-CPP), Test Set” value under setting [1] is given as “Non-CPP”.

As to QIMISA, the “class (CPP / Non-CPP), Test Set” value is listed as “Non-CPP”.

For RRRRRRWWW, the “class (CPP / Non-CPP), Test Set” value is on record as “CPP”.

As to FLPFLAKILTGVL, the “class (CPP / Non-CPP), Test Set” value was “Non-CPP”.

As to KRKRWHW, the “class (CPP / Non-CPP), Test Set” value is recorded as “CPP”.

On to TERQIKIWFQNRCMK, for which the “class (CPP / Non-CPP), Test Set” value under setting [1] was “Non-CPP”.

With GRCTKSIPPICFPA, the “class (CPP / Non-CPP), Test Set” value under setting [1] is recorded as “CPP”.

For the substance TERQIKIWFQNRRMK, under setting [1], the “class (CPP / Non-CPP), Test Set” value is recorded as “Non-CPP”.

For the substance GNGEQREMAVSRLRDCLDRQA, under setting [1], the “class (CPP / Non-CPP), Test Set” value is on record as “CPP”.

Consider ARRRRCSGSGSGCGSGSGSCGRRRR, for which the “class (CPP / Non-CPP), Test Set” value under setting [1] is “CPP”.

In the case of KWRRKLKKLRPKKKRKV, under setting [1], the “class (CPP / Non-CPP), Test Set” value is “CPP”.

On to YGRKKRRQRRRGC, for which, under setting [1], the “class (CPP / Non-CPP), Test Set” value is given as “CPP”.

On to HHHHHHHHH, for which the “class (CPP / Non-CPP), Test Set” value is “CPP”.

For PLDGMCDKGNYTQ, the “class (CPP / Non-CPP), Test Set” value is “Non-CPP”.

Consider EGGGPQWAVGHFM, for which the “class (CPP / Non-CPP), Test Set” value was “Non-CPP”.

For VGALAVVVWLWLWLWAGSGPKKKRKVC, the “class (CPP / Non-CPP), Test Set” value under setting [1] is listed as “CPP”.

For the substance RKKNPNCRR, the “class (CPP / Non-CPP), Test Set” value is on record as “CPP”.

On to VIVYIVVKDASSK, for which the “class (CPP / Non-CPP), Test Set” value is “Non-CPP”.

Consider ACRGRGRRCGSGRRSCG, for which the “class (CPP / Non-CPP), Test Set” value under setting [1] is on record as “CPP”.

Consider MPVMFYFSARNEVALVLVYFNFMIMMMH, for which, under setting [1], the “class (CPP / Non-CPP), Test Set” value was “Non-CPP”.

YRDRFAFQPH: the “class (CPP / Non-CPP), Test Set” value is listed as “CPP”.

Regarding KRKKKGKGLGKKRDPCLRKYK, the “class (CPP / Non-CPP), Test Set” value under setting [1] is on record as “CPP”.

As for TRSSRAGLQFPVGRVIIRLLRK, the “class (CPP / Non-CPP), Test Set” value under setting [1] is “CPP”.

With PKKGSKKAVTKAQKKDGA, under setting [1], the “class (CPP / Non-CPP), Test Set” value is “CPP”.

On to GAPRLVLLFSGKRKSGKDFVTEA, for which the “class (CPP / Non-CPP), Test Set” value under setting [1] was “Non-CPP”.

Consider RHVYHVLLSQ, for which the “class (CPP / Non-CPP), Test Set” value is given as “CPP”.

VDFEEAYLAVS: the “class (CPP / Non-CPP), Test Set” value is “Non-CPP”.

In the case of LNSLGYLLGKALAALAKKIL, under setting [1], the “class (CPP / Non-CPP), Test Set” value is listed as “Non-CPP”.

Turning to YGRKKRRQRRTALDWSWLQTE, under setting [1], the “class (CPP / Non-CPP), Test Set” value is “CPP”.

As to SWFASTGGRDSKIDVWSLVP, under setting [1], the “class (CPP / Non-CPP), Test Set” value is “Non-CPP”.

Turning to GDCLPHLKLCKENKGCCSKKCKRRGTNIEKRCR, the “class (CPP / Non-CPP), Test Set” value under setting [1] is on record as “CPP”.

As for NYRWRCK, the “class (CPP / Non-CPP), Test Set” value was “CPP”.

Turning to KKLSLCLKRIGDELDS, the “class (CPP / Non-CPP), Test Set” value under setting [1] is “Non-CPP”.

KIWFMNRRMK: the “class (CPP / Non-CPP), Test Set” value is “Non-CPP”.

FFLIPKGRRRRRRRRR: the “class (CPP / Non-CPP), Test Set” value under setting [1] was “CPP”.

Take DVVRVWFCNRRQKGKR: the “class (CPP / Non-CPP), Test Set” value under setting [1] is on record as “CPP”.

With RQIKIWFQNRRMKWKKC, the “class (CPP / Non-CPP), Test Set” value under setting [1] was “CPP”.

On to ADCKNFFWKTFTSC, for which, under setting [1], the “class (CPP / Non-CPP), Test Set” value is given as “Non-CPP”.

With MIEMAM, the “class (CPP / Non-CPP), Test Set” value is reported as “Non-CPP”.

As to KLFNGNEVCLDPKEKWVQKVVQIFLK, the “class (CPP / Non-CPP), Test Set” value under setting [1] is recorded as “Non-CPP”.

NSDMAHERKFMWQYNR: under setting [1], the “class (CPP / Non-CPP), Test Set” value is recorded as “Non-CPP”.

Take MNASQVAGEEAPQSGHSVKVVLVGDGGCGKTSLMMVF: the “class (CPP / Non-CPP), Test Set” value under setting [1] is on record as “Non-CPP”.

As to RHHLRHLRRHLRHLLRHLRHHLRHLRRHLRHLL, the “class (CPP / Non-CPP), Test Set” value under setting [1] is “CPP”.

LRKLRKRLLR: the “class (CPP / Non-CPP), Test Set” value was “CPP”.

As for LILIGRRRRRRRRGC, under setting [1], the “class (CPP / Non-CPP), Test Set” value is given as “CPP”.

In the case of KETWWETWWTEWSQPKKRKV, the “class (CPP / Non-CPP), Test Set” value under setting [1] is “CPP”.

Turning to RKKAAA, the “class (CPP / Non-CPP), Test Set” value is recorded as “CPP”.

For the substance RRLLRRLRR, the “class (CPP / Non-CPP), Test Set” value is “CPP”.

Consider FLPLLAGVVANFLPQIICKIARKC, for which the “class (CPP / Non-CPP), Test Set” value under setting [1] is recorded as “Non-CPP”.

On to KLALKLACKALKAA, for which the “class (CPP / Non-CPP), Test Set” value under setting [1] was “Non-CPP”.

As to AHALCLTEFQIKSNRRMKWKKEN, the “class (CPP / Non-CPP), Test Set” value under setting [1] was “Non-CPP”.

For NTGTWLKYHS, the “class (CPP / Non-CPP), Test Set” value is reported as “CPP”.

With GWTNLSAQYLLGPPPGFSPFR, under setting [1], the “class (CPP / Non-CPP), Test Set” value is reported as “Non-CPP”.

Consider CRKKRRQRRR, for which, under setting [1], the “class (CPP / Non-CPP), Test Set” value is given as “CPP”.

For the substance ARRRRCSDRFRNCPADEALCGRRRR, under setting [1], the “class (CPP / Non-CPP), Test Set” value was “CPP”.

As for TAAGDARANAVAKAGLHDLNIETDTERNH, the “class (CPP / Non-CPP), Test Set” value under setting [1] was “Non-CPP”.

GWTNLSAGYLLGPPPGFSPFS: under setting [1], the “class (CPP / Non-CPP), Test Set” value was “Non-CPP”.

As to SDPSVPLRPEEDELIDQ, the “class (CPP / Non-CPP), Test Set” value under setting [1] is given as “Non-CPP”.

As for VQQQQPLGQQQP, the “class (CPP / Non-CPP), Test Set” value is reported as “Non-CPP”.

Consider CAETCIYIPCFTEAVGCKCKDKVCYKN, for which, under setting [1], the “class (CPP / Non-CPP), Test Set” value is listed as “Non-CPP”.

As for LNSAGYLLGKPKALAALAK, the “class (CPP / Non-CPP), Test Set” value under setting [1] is on record as “Non-CPP”.

For the substance NAATATRGRSAASRPTQRPRAPARSASRPRRPVQ, the “class (CPP / Non-CPP), Test Set” value under setting [1] is “CPP”.

For FDPYALSEHDEERPQNVQSKSRTAELQAEIDDTVGI, the “class (CPP / Non-CPP), Test Set” value under setting [1] was “Non-CPP”.

Regarding ACRGRGRGCGSGSGSCG, the “class (CPP / Non-CPP), Test Set” value under setting [1] is “CPP”.

On to HGVSGHGQHGVHG, for which the “class (CPP / Non-CPP), Test Set” value is listed as “Non-CPP”.

Regarding GMNCSREYAHCTSAYV, the “class (CPP / Non-CPP), Test Set” value under setting [1] is recorded as “Non-CPP”.

In the case of FGCKNFFWKTFTSC, the “class (CPP / Non-CPP), Test Set” value under setting [1] was “Non-CPP”.

For FLAGLIGGLAKML, under setting [1], the “class (CPP / Non-CPP), Test Set” value is given as “Non-CPP”.

On to APVTGAHMAYVDYWVPCQFTECSGEYVTEEYRKA, for which the “class (CPP / Non-CPP), Test Set” value under setting [1] was “Non-CPP”.

With HTPGNSNKWKHLQENKKGRPRR, under setting [1], the “class (CPP / Non-CPP), Test Set” value was “CPP”.

Take WRRRYRRWRRRRRWRRRPRR: the “class (CPP / Non-CPP), Test Set” value under setting [1] was “CPP”.

Regarding KKLSECLKRIGDELDS, the “class (CPP / Non-CPP), Test Set” value under setting [1] was “Non-CPP”.

Consider GRKKRRQ, for which the “class (CPP / Non-CPP), Test Set” value under setting [1] was “CPP”.

In the case of TRTSRGWHTTDLKYN, under setting [1], the “class (CPP / Non-CPP), Test Set” value was “Non-CPP”.

For GRKKHRQPPQC, the “class (CPP / Non-CPP), Test Set” value under setting [1] is “Non-CPP”.

Take NYQWRCKNQN: the “class (CPP / Non-CPP), Test Set” value is “CPP”.

For DFDMLRCMLGRVYRPCWQV, the “class (CPP / Non-CPP), Test Set” value under setting [1] is reported as “Non-CPP”.

Regarding GFFTLIKAANKLINKTVNKEAGKGGLEIMA, the “class (CPP / Non-CPP), Test Set” value under setting [1] is given as “Non-CPP”.

Turning to CKYGRKKRRQRRR, the “class (CPP / Non-CPP), Test Set” value under setting [1] is recorded as “CPP”.

On to LLKHTALLKTTALLKTTA, for which the “class (CPP / Non-CPP), Test Set” value under setting [1] was “Non-CPP”.

For DKLGVWFIWANNASVFHAYHLKC, the “class (CPP / Non-CPP), Test Set” value under setting [1] is on record as “Non-CPP”.

IPLVVPLC: the “class (CPP / Non-CPP), Test Set” value was “CPP”.

RLRLRLRLRLRLRLRLKLLKLLKLLKLLKKKKKKKGYK: the “class (CPP / Non-CPP), Test Set” value under setting [1] is “CPP”.

In the case of QKVAFCDCCYDDIYTVEFKGCIFRPK, the “class (CPP / Non-CPP), Test Set” value under setting [1] is on record as “Non-CPP”.

For VATIKSVSFYTRK, the “class (CPP / Non-CPP), Test Set” value is recorded as “Non-CPP”.

IKRYLIKR: the “class (CPP / Non-CPP), Test Set” value was “Non-CPP”.

In the case of IAARIKLRSRQYIKLRHL, the “class (CPP / Non-CPP), Test Set” value under setting [1] is “Non-CPP”.

With QNLGNQWAVGHLM, the “class (CPP / Non-CPP), Test Set” value is recorded as “Non-CPP”.
